Measurements reported in patent US20160145242A1, “PHENYLIMIDAZOLE DERIVATIVE, AND THERAPEUTIC MEDICINE OR PREVENTIVE MEDICINE FOR INFLAMMATORY DISEASE, ETC” (NIPPON SODA CO., LTD., priority 2013, published 2016).

Molecular target: T1, rabbit reticulocyte-derived 15-lipoxygenase (Oryctolagus cuniculus, UniProt P12530)
T1 construct: Rabbit reticulocyte-derived 15-lipoxygenase; from tissue; host or cells: rabbit reticulocytes
T1 sequence (P12530 1-663): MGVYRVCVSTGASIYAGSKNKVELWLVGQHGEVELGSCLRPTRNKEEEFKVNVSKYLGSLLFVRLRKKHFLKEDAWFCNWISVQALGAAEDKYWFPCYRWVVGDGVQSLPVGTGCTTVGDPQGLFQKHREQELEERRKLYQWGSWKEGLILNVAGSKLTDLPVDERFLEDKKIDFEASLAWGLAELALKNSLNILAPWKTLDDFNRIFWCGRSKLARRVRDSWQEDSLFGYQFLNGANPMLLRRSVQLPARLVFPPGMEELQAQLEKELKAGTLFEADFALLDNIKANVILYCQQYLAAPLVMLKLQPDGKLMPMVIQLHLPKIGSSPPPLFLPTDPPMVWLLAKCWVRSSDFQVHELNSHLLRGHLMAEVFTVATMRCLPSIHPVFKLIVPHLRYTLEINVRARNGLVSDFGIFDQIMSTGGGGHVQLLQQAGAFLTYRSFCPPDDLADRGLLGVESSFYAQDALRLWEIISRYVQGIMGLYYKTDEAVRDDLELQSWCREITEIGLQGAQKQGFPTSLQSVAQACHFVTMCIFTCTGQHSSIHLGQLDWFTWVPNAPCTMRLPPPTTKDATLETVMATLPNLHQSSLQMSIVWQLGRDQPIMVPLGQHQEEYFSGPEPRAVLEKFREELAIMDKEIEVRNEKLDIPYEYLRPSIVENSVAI
Test: 15-Lipoxygenase activity inhibitory action
Type: biochemical
Method: The inhibitory action of the compound of the present invention with respect to the activity of the present enzyme was examined using rabbit reticulocyte-derived 15-lipoxygenase.
Rabbit reticulocyte-derived 15-lipoxygenase was reacted with 260 μM of linoleic acid and the amount of 13-hydroperoxide which was a reaction product was measured using an absorption spectrometer.

Structure (SMILES): CC(=O)N1CCN(c2ccc(N)c(-n3ccnc3)c2)CC1 [Compound 1-1, 4-acetyl-1-(4-amino-3-imidazole-1-yl-phenyl)piperazine]
- inhibition at 3 µM (3 μM, substrate linoleic acid 260 μM, read-out: 15-lipoxygenase activity inhibition rate): 49%
- IC50 (estimated from 49% inhibition at 3 μM, read-out: 50% inhibitory concentration with respect to 15-lipoxygenase activity): ~3 µM
